Drawing on ChEMBL document CHEMBL3774317, “Design and synthesis of novel tamoxifen analogues that avoid CYP2D6 metabolism” (Eur J Med Chem, 2016), this text covers growth for two compounds.

Holding throughout (assay type): functional
In one assay the test system is A498. Description: Cytotoxicity against human A498 cells assessed as cell growth at 10^-7 M after 48 hrs by SRB assay. As to conditions: A498, 48 h, read-out: Activity. (In general: Sulforhodamine B stains cellular protein and so reports cell mass.)
The nature of assay [1]: Cytotoxicity against human BT549 cells assessed as cell growth at 10^-7 M after 48 hrs by SRB assay. As to conditions: BT-549, 48 h, read-out: Activity.
A short description of assay [2]: Cytotoxicity against human UO31 cells assessed as cell growth at 10^-4 M after 48 hrs by SRB assay. The conditions noted are these: UO-31, 48 h, read-out: Activity.
In another assay the test system is MDA-MB-468. As to the kind of experiment: Cytotoxicity against human MDA-MB-468 cells assessed as cell growth at 10^-4 M after 48 hrs by SRB assay. The conditions noted are these: MDA-MB-468, 48 h, read-out: Activity.
A short description of assay [3]: Cytotoxicity against human UO31 cells assessed as cell growth at 10^-6 M after 48 hrs by SRB assay. As to conditions: UO-31, 48 h, read-out: Activity.
Assay [4] concerns NCI-H23. As to the kind of experiment: Cytotoxicity against human NCI-H23 cells assessed as cell growth at 10^-5 M after 48 hrs by SRB assay. As to conditions: NCI-H23, 48 h, read-out: Activity.
The subject of the next assay is U-251. Description: Cytotoxicity against human U251 cells assessed as cell growth at 10^-5 M after 48 hrs by SRB assay. The conditions noted are these: U-251, 48 h, read-out: Activity.
Assay [5] can be described thus: Cytotoxicity against human COLO205 cells assessed as cell growth at 10^-8 M after 48 hrs by SRB assay. The conditions noted are these: COLO 205, 48 h, read-out: Activity.
A short description of assay [6]: Cytotoxicity against human HCT116 cells assessed as cell growth at 10^-8 M after 48 hrs by SRB assay. The conditions noted are these: HCT-116, 48 h, read-out: Activity.
The subject of a further assay is HT-29. As to the kind of experiment: Cytotoxicity against human HT-29 cells assessed as cell growth at 10^-8 M after 48 hrs by SRB assay. The conditions noted are these: HT-29, 48 h, read-out: Activity.
Another assay deals with SK-MEL-28. Description: Cytotoxicity against human SK-MEL-28 cells assessed as cell growth at 10^-8 M after 48 hrs by SRB assay. As to conditions: SK-MEL-28, 48 h, read-out: Activity.
A short description of assay [7]: Cytotoxicity against human UACC257 cells assessed as cell growth at 10^-8 M after 48 hrs by SRB assay. The conditions noted are these: UACC-257, 48 h, read-out: Activity.
For the next assay, the system named is A549. As to the kind of experiment: Cytotoxicity against human A549 cells assessed as cell growth at 10^-7 M after 48 hrs by SRB assay. As to conditions: A549, 48 h, read-out: Activity.
Assay [8] relates to NCI-H226. Description: Cytotoxicity against human NCI-H226 cells assessed as cell growth at 10^-7 M after 48 hrs by SRB assay. The conditions noted are these: NCI-H226, 48 h, read-out: Activity.
The test system of the next assay is NCI-H460. As to the kind of experiment: Cytotoxicity against human NCI-H460 cells assessed as cell growth at 10^-7 M after 48 hrs by SRB assay. The conditions noted are these: NCI-H460, 48 h, read-out: Activity.
Assay [9] in a line: Cytotoxicity against human IGROV1 cells assessed as cell growth at 10^-5 M after 48 hrs by SRB assay. As to conditions: IGROV-1, 48 h, read-out: Activity.
Assay [10] is described as follows: Cytotoxicity against human OVCAR5 cells assessed as cell growth at 10^-5 M after 48 hrs by SRB assay. As to conditions: OVCAR-5, 48 h, read-out: Activity.
Assay [11] in a line: Cytotoxicity against human OVCAR8 cells assessed as cell growth at 10^-5 M after 48 hrs by SRB assay. The conditions noted are these: OVCAR-8, 48 h, read-out: Activity.
Assay [12] can be described thus: Cytotoxicity against human TK10 cells assessed as cell growth at 10^-5 M after 48 hrs by SRB assay. The conditions noted are these: TK-10, 48 h, read-out: Activity.
The nature of assay [13]: Cytotoxicity against human DU145 cells assessed as cell growth at 10^-5 M after 48 hrs by SRB assay. The conditions noted are these: DU-145, 48 h, read-out: Activity.
The next assay concerns EKVX. As to the kind of experiment: Cytotoxicity against human EKVX cells assessed as cell growth at 10^-4 M after 48 hrs by SRB assay. The conditions noted are these: read-out: Activity.
Assay [14] deals with NCI-H23. As to the kind of experiment: Cytotoxicity against human NCI-H23 cells assessed as cell growth at 10^-4 M after 48 hrs by SRB assay. The conditions noted are these: NCI-H23, 48 h, read-out: Activity.
In the next assay the test system is NCI-H522. Description: Cytotoxicity against human NCI-H522 cells assessed as cell growth at 10^-4 M after 48 hrs by SRB assay. As to conditions: NCI-H522, 48 h, read-out: Activity.
Assay [15] is described as follows: Cytotoxicity against human SF268 cells assessed as cell growth at 10^-4 M after 48 hrs by SRB assay. As to conditions: SF-268, 48 h, read-out: Activity.
Assay [16] concerns SK-MEL-5. As to the kind of experiment: Cytotoxicity against human SK-MEL-5 cells assessed as cell growth at 10^-4 M after 48 hrs by SRB assay. As to conditions: SK-MEL-5, 48 h, read-out: Activity.
Assay [17] is described as follows: Cytotoxicity against human Caki1 cells assessed as cell growth at 50 nM after 48 hrs by SRB assay. The conditions noted are these: CAKI-1, 48 h, read-out: Activity.
A short description of assay [18]: Cytotoxicity against human Hs 578T cells assessed as cell growth at 50 nM after 48 hrs by SRB assay. The conditions noted are these: read-out: Activity.
Assay [19] concerns MDA-MB-435. As to the kind of experiment: Cytotoxicity against human MDA-MB-435 cells assessed as cell growth at 50 uM after 48 hrs by SRB assay. As to conditions: MDA-MB-435, 48 h, read-out: Activity.
The nature of assay [20]: Cytotoxicity against human UACC257 cells assessed as cell growth at 50 uM after 48 hrs by SRB assay. The conditions noted are these: UACC-257, 48 h, read-out: Activity.
Assay [21] can be described thus: Cytotoxicity against human SNB19 cells assessed as cell growth at 0.5 uM after 48 hrs by SRB assay. The conditions noted are these: SNB-19, 48 h, read-out: Activity.
Assay [22] can be described thus: Cytotoxicity against human UACC62 cells assessed as cell growth at 0.5 uM after 48 hrs by SRB assay. The conditions noted are these: UACC-62, 48 h, read-out: Activity.
Assay [23] in a line: Cytotoxicity against human Hs 578T cells assessed as cell growth at 0.5 uM after 48 hrs by SRB assay. As to conditions: read-out: Activity.
Another assay deals with CCRF-CEM. Description: Cytotoxicity against human CCRF-CEM cells assessed as cell growth at 5 uM after 48 hrs by SRB assay. The conditions noted are these: read-out: Activity.
The test system of assay [24] is MDA-MB-435. Description: Cytotoxicity against human MDA-MB-435 cells assessed as cell growth at 5 nM after 48 hrs by SRB assay. As to conditions: MDA-MB-435, 48 h, read-out: Activity.
Assay [25] relates to SK-MEL-5. Description: Cytotoxicity against human SK-MEL-5 cells assessed as cell growth at 5 nM after 48 hrs by SRB assay. As to conditions: SK-MEL-5, 48 h, read-out: Activity.
Assay [26] can be described thus: Cytotoxicity against human UO31 cells assessed as cell growth at 5 nM after 48 hrs by SRB assay. The conditions noted are these: UO-31, 48 h, read-out: Activity.
Assay [27] can be described thus: Cytotoxicity against human HCT116 cells assessed as cell growth at 5 uM after 48 hrs by SRB assay. The conditions noted are these: HCT-116, 48 h, read-out: Activity.
Assay [28] is described as follows: Cytotoxicity against human SNB75 cells assessed as cell growth at 5 uM after 48 hrs by SRB assay. As to conditions: SNB-75, 48 h, read-out: Activity.
Assay [29] relates to NCI-H226. Description: Cytotoxicity against human NCI-H226 cells assessed as cell growth at 50 uM after 48 hrs by SRB assay. The conditions noted are these: NCI-H226, 48 h, read-out: Activity.
The nature of assay [30]: Cytotoxicity against human HCT15 cells assessed as cell growth at 50 uM after 48 hrs by SRB assay. As to conditions: HCT-15, 48 h, read-out: Activity.

As to `C/C(=C(/c1ccc(O)cc1)c1ccc(OCCN2CCCC2)cc1)c1ccccc1`, the growth at 0.1 µM amounted to 60% with A498; 100% in assay [1]; 102% with A549; 95% with NCI-H226 [8]; 106% with NCI-H460. The growth at 100 µM in assay [2] was -92%; in the assay on MDA-MB-468, -87%; in the assay with EKVX, -100%; in the assay on NCI-H23 [14] it was -83%; in the assay with NCI-H522 it was -82%; in [15], -80%. In addition, the growth at 100 µM with SK-MEL-5 [16] was -100%. The growth at 1 µM in assay [3] is 78%. In addition, the growth at 10 µM in the assay on NCI-H23 [4] was 29%; in the assay on U-251, -33%; in assay [9] it was 41%; in assay [10], 46%; in [11], 35%; in assay [12], 27%. The growth at 10 µM in assay [13] was found to be 49%. Besides, the growth at 0.01 µM came out at 93% in assay [5]; 97% in assay [6]; 101% with HT-29; 90% in the assay with SK-MEL-28; 96% in [7].

As for `CCCCCCCCCC(=O)Oc1ccc(/C(=C(/C)c2ccccc2)c2ccc(OCCN3CCCC3)cc2)cc1`, the figures for the growth at 0.05 µM in [17] and in assay [18] were 82% and 92%, respectively. Moreover, the growth at 50 µM in the assay on MDA-MB-435 [19] is -100%; in assay [20], -91%; in the assay with NCI-H226 [29], -74%; in assay [30], -100%. Also, the growth at 0.5 µM amounted to 87% in [21], 64% in [22] and 75% in [23]. Besides, the growth at 5 µM in the assay with CCRF-CEM is 88%; in assay [27], 85%; in assay [28] it was 69%. Also, the growth at 0.005 µM turned out to be 99% with MDA-MB-435 [24], 100% in the assay on SK-MEL-5 [25] and 95% in [26].
